Source: patent publication US20090209512A1, “NEUROGENESIS INDUCER OR NEUROPATHY THERAPEUTIC AGENT COMPRISING ALKYL ETHER DERIVATIVE OR SALT THEREOF” (Toyama Chemical Co., Ltd., priority 2006, published 2009)

Tests used:
[1] = test system: cultured neural stem cells; conditions: Proc. Natl. Acad. Sci. U.S.A., 2004, 101(47), pp. 16659-64; cited from earlier work
Male DBA/2J mice = assay: Novelty-suppressed feeding (NSF) test; type: in vivo; conditions: 10 mg/kg orally for 28 days
Method: The novelty-suppressed feeding (NSF) test (Santarelli et al., 2003, Science. 301: 805-9) was performed to assess antidepressant efficacy of T-817MA. Male DBA/2J mice (7 weeks old, 20-21 animals/group) were used. We administrated mice orally with T-817MA (10 mg/kg), or vehicle (distilled water) for 28 days before NSF test. At the time of testing, mice that had been food deprived for 24 hours were gently placed in a corner of a brightly lit arena (approximately 650 lux at floor of arena, 50×50×20 cm) for a maximum of 5 minutes. The floor was covered with approximately 2 cm of bedding. Pellet of food was attached by wire at the center of the arena. […] Statistical differences between vehicle group and T-817MA treated group were found by Dunnett test.

[2] = test system: cultured neural stem cells; assay: Effect on differentiation of cultured neural stem cell (Tuj1-positive cell ratio); type: cell-based, ICR mouse
Method: Cultured neural stem cells were prepared according to the partially modified method of Hirabayashi (Development, 2004, 131(12), p. 2791-2801). The cerebrum was removed from an ICR mouse embryo (embryonic day 14) and incubated in artificial cerebrospinal fluid (124 mM NaCl, 5 mM KCl, 1.3 mM MgCl2, 2 mM CaCl2, 26 mM NaHCO3, 10 mM D-Glucose, pH 7.4) containing 0.0625% trypsin and 0.1 mg/mL of DNaseI at 37° C. for 5 min. A trypsin inhibitor (final concentration: 0.35 mg/mL) was then added and the mixture was centrifuged at 800 rpm for 5 min. The obtained pellet was dispersed by pipetting in a neural stem cell culture medium (DMEM/F-12 culture medium containing 20 ng/mL basic fibroblast growth factor, 20 ng/mL epidermal growth factor and B27 supplement (Invitrogen)) to obtain single cell suspension. […]
After 3 days of culturing, the cells were washed with phosphate-buffered saline (PBS), fixed with 4% paraformaldehyde/phosphate buffer, treated with 0.3% Triton X-100/PBS solution at room temperature for 5 minutes, washed with PBS, and incubated with 0.5% skim milk at room temperature for 1 hour. […] The cells were washed with PBS and observed under fluorescence microscope, and the number of the Tuj1-positive cells emitting red fluorescence was counted, and its ratio against the total cell number was calculated as the differentiation ratio into neurons representing a neurogenesis inducing effect.

SMILES | Neurogenesis inducing effect in cultured neural stem cells [1] | NSF latency (mean) (Male DBA/2J mice; mice food deprived 24 hours, vehicle 227.2) [s] | Latency to feed vs vehicle group (Male DBA/2J mice; P<0.01, Dunnett test) | Differentiation ratio compared with control group (neurogenesis inducing effect) ([2]; T-817MA 10 μM vs B27 supplemented DMEM/F-12 alone) | Differentiation ratio into neurons (%) (Ratio of Tuj1 positive cells) ([2]; T-817MA 10 μM, 3 days of culturing, B27-supplemented DMEM/F-12, control group 13.0)
CCCC(CCC)C(=O)O [valproic acid] | show the neurogenesis inducing effect | – | – | – | –
OC1CN(CCCOCCc2ccc3sccc3c2)C1 [T-817MA, 1-(3-(2-(1-benzothiophen-5-yl)ethoxy)propyl)azetidin-3-ol] | – | 145.5 | significant decreased latency to feed | higher differentiation ratio | 27.4
